The subject of the data set is CCRIS mutagenicity, Ames/micronucleus/aberration tests. The data set is described as follows: CCRIS mutagenicity studies.
The mark [1] stands for this setting: Test System: AMES SALMONELLA TYPHIMURIUM, Strain/Indicator: TA98, Metabolic Activation: NONE, Method: PREINCUBATION
Where [2] appears, read: Test System: AMES SALMONELLA TYPHIMURIUM, Strain/Indicator: TA98, Metabolic Activation: RAT, LIVER, S-9, AROCLOR 1254, Method: PREINCUBATION
[3] abbreviates: Test System: AMES SALMONELLA TYPHIMURIUM, Strain/Indicator: TA100, Metabolic Activation: NONE, Method: PREINCUBATION
The mark [4] stands for this setting: Test System: AMES SALMONELLA TYPHIMURIUM, Strain/Indicator: TA100, Metabolic Activation: RAT, LIVER, S-9, AROCLOR 1254, Method: PREINCUBATION
Where [5] appears, read: Test System: AMES SALMONELLA TYPHIMURIUM, Strain/Indicator: TA1535, Metabolic Activation: NONE, Method: PREINCUBATION
The mark [6] stands for this setting: Test System: AMES SALMONELLA TYPHIMURIUM, Strain/Indicator: TA1535, Metabolic Activation: RAT, LIVER, S-9, AROCLOR 1254, Method: PREINCUBATION
Setting [7] is: Test System: AMES SALMONELLA TYPHIMURIUM, Strain/Indicator: TA1538, Metabolic Activation: NONE, Method: PREINCUBATION
Where [8] appears, read: Test System: AMES SALMONELLA TYPHIMURIUM, Strain/Indicator: TA1538, Metabolic Activation: RAT, LIVER, S-9, AROCLOR 1254, Method: PREINCUBATION
Where [9] appears, read: Test System: AMES SALMONELLA TYPHIMURIUM, Strain/Indicator: TA100, Metabolic Activation: NONE, Method: STANDARD PLATE.
Setting [10] is: Test System: AMES SALMONELLA TYPHIMURIUM, Strain/Indicator: TA98, Metabolic Activation: NONE, Method: STANDARD PLATE.

Calls of active or inactive are those of the source. How the calls were made is not given here.

Regarding `O=C1c2ccccc2C(=O)c2c1cc(O)c(CO)c2O`, the mutagenic call under setting [1] was “active; positive”; the mutagenic call under setting [2] was “active; positive”; the mutagenic call (Test System: AMES SALMONELLA TYPHIMURIUM, Strain/Indicator: TA98, Metabolic Activation: RAT, LIVER, S-9, PCB, Method: PREINCUBATION) was “active; positive”; the mutagenic call under setting [3] was “active; positive”; the mutagenic call under setting [4] is “active; positive”; the mutagenic call (Test System: AMES SALMONELLA TYPHIMURIUM, Strain/Indicator: TA100, Metabolic Activation: RAT, LIVER, S-9, PCB, Method: PREINCUBATION) is “active; positive”. Further, the mutagenic call is, setting by setting: (Test System: AMES SALMONELLA TYPHIMURIUM, Strain/Indicator: TA102, Metabolic Activation: NONE, Method: PREINCUBATION) “active; positive”; (Test System: AMES SALMONELLA TYPHIMURIUM, Strain/Indicator: TA102, Metabolic Activation: RAT, LIVER, S-9, AROCLOR 1254, Method: PREINCUBATION) “active; positive”; (Test System: AMES SALMONELLA TYPHIMURIUM, Strain/Indicator: TA102, Metabolic Activation: RAT, LIVER, S-9, Method: PREINCUBATION) “active; positive”; (Test System: AMES SALMONELLA TYPHIMURIUM, Strain/Indicator: TA104, Metabolic Activation: NONE, Method: PREINCUBATION) “active; positive”; (Test System: AMES SALMONELLA TYPHIMURIUM, Strain/Indicator: TA104, Metabolic Activation: RAT, LIVER, S-9, AROCLOR 1254, Method: PREINCUBATION) “active; positive”; under setting [5], “inactive; negative”. Further, the mutagenic call by setting is: under setting [6], “inactive; negative”; (Test System: AMES SALMONELLA TYPHIMURIUM, Strain/Indicator: TA1537, Metabolic Activation: NONE, Method: PREINCUBATION) “active; positive”; (Test System: AMES SALMONELLA TYPHIMURIUM, Strain/Indicator: TA1537, Metabolic Activation: RAT, LIVER, S-9, AROCLOR 1254, Method: PREINCUBATION) “active; positive”; (Test System: AMES SALMONELLA TYPHIMURIUM, Strain/Indicator: TA1537, Metabolic Activation: RAT, LIVER, S-9, Method: PREINCUBATION) “active; positive”; under setting [7], “active; positive”; under setting [8], “active; positive”. The mutagenic call was “active; positive” (Test System: CHINESE HAMSTER V-79, Strain/Indicator: V-79/AZAGUANINE, Metabolic Activation: NONE, Method: STANDARD PLATE) and “active; positive” (Test System: UDS RODENT HEPATOCYTES, Strain/Indicator: THY INCORP, Metabolic Activation: NONE).

Turning to `COc1ccc(CCC2CO2)cc1` (centres undefined), the mutagenic call was “active; positive” under setting [3]; “active; positive” under setting [9]; “active; positive” under setting [5]; “active; positive” (Test System: AMES SALMONELLA TYPHIMURIUM, Strain/Indicator: TA1535, Metabolic Activation: NONE, Method: STANDARD PLATE).

On to `O=c1ccc2ccccc2[nH]1`, for which the mutagenic call reads like this: under setting [9], “inactive; negative”; (Test System: AMES SALMONELLA TYPHIMURIUM, Strain/Indicator: TA100, Metabolic Activation: RAT, LIVER, S-9, AROCLOR 1254 (10% OR 20%), Method: STANDARD PLATE) “inactive; negative”.

Take `Cc1cc(O)c2c(c1O)C(=O)c1cccc(O)c1C2=O`: where the note is “Test System: UDS RODENT HEPATOCYTES, Strain/Indicator: THY INCORP, Metabolic Activation: NONE, Method: AUTORADIOGRAPHY”, the mutagenic call was “inactive; negative”.

As to `NC(=O)/C(=C\c1ccc([N+](=O)[O-])o1)c1ccco1`, the mutagenic call under setting [10] is “active; positive”; the mutagenic call (Test System: AMES SALMONELLA TYPHIMURIUM, Strain/Indicator: TA98, Metabolic Activation: RAT, LIVER, S-9, KC500 OR PHENOBARBITAL, Method: LIQUID SUSPENSION) was “active; positive”; the mutagenic call under setting [3] is “active; positive”; the mutagenic call under setting [9] was “active; positive”; the mutagenic call (Test System: AMES SALMONELLA TYPHIMURIUM, Strain/Indicator: TA100, Metabolic Activation: RAT, LIVER, S-9, KC500 OR PHENOBARBITAL, Method: LIQUID SUSPENSION) was “active; positive”; the mutagenic call (Test System: AMES SALMONELLA TYPHIMURIUM, Strain/Indicator: YG7112, Metabolic Activation: NONE, Method: PREINCUBATION) is “active; positive”. For the same compound, the mutagenic call (Test System: AMES SALMONELLA TYPHIMURIUM, Strain/Indicator: YG7113, Metabolic Activation: NONE, Method: PREINCUBATION) was “active; positive”; the mutagenic call (Test System: AMES SALMONELLA TYPHIMURIUM, Strain/Indicator: YG7119, Metabolic Activation: NONE, Method: PREINCUBATION) is “active; positive”; the mutagenic call (Test System: Ames Salmonella typhimurium, Strain/Indicator: TA100, Metabolic Activation: None, Method: Preincubation) was “active; positive”; the mutagenic call (Test System: Ames Salmonella typhimurium, Strain/Indicator: TA1975P, Metabolic Activation: None, Method: Preincubation) is “active; positive (at higher doses)”; the mutagenic call (Test System: CHINESE HAMSTER V-79, Strain/Indicator: V-79/8-AZAGUANINE, Metabolic Activation: NONE, Method: STANDARD PLATE) was “active; positive”; the mutagenic call (Test System: E. COLI, Strain/Indicator: WP2, Metabolic Activation: NONE, Method: PREINCUBATION) is “active; positive”. Besides, the mutagenic call was “active; positive” (Test System: E. COLI, Strain/Indicator: WP2 UVRA, Metabolic Activation: NONE, Method: SPOT); “active; positive” (Test System: MOUSE LYMPHOMA, Strain/Indicator: L5178Y (TK+/TK-), Metabolic Activation: NONE, Method: SUSPENSION/PLATE); “active; positive” (Test System: MOUSE LYMPHOMA, Strain/Indicator: L5178Y (TK+/TK-), Metabolic Activation: RAT, LIVER, S-9, AROCLOR 1254, Method: SUSPENSION/PLATE).

Regarding `O=C/C(Br)=C/c1ccccc1`, the mutagenic call is, setting by setting: under setting [1], “active; positive”; (Test System: AMES SALMONELLA TYPHIMURIUM, Strain/Indicator: TA98, Metabolic Activation: NONE, Method: PREINCUBATION, LIQUID INCUBATION) “active; positive”; under setting [10], “active; positive”; under setting [2], “active; positive”; (Test System: AMES SALMONELLA TYPHIMURIUM, Strain/Indicator: TA98, Metabolic Activation: RAT, LIVER, S-9, PCB, Method: STANDARD PLATE) “active; positive”; under setting [3], “active; positive”. Moreover, the mutagenic call reads like this: under setting [9], “active; positive”; under setting [4], “inactive; negative”; (Test System: AMES SALMONELLA TYPHIMURIUM, Strain/Indicator: TA100, Metabolic Activation: RAT, LIVER, S-9, PCB, Method: STANDARD PLATE) “active; positive”; under setting [5], “active; positive”; (Test System: AMES SALMONELLA TYPHIMURIUM, Strain/Indicator: TA1535, Metabolic Activation: NONE, Method: PREINCUBATION, LIQUID INCUBATION) “active; positive”; under setting [6], “inactive; negative”. Moreover, the mutagenic call is “active; positive” under setting [7]; “active; positive” (Test System: AMES SALMONELLA TYPHIMURIUM, Strain/Indicator: TA1538, Metabolic Activation: NONE, Method: PREINCUBATION, LIQUID INCUBATION); “active; positive” under setting [8]; “active; positive” (Test System: AMES SALMONELLA TYPHIMURIUM, Strain/Indicator: TA2637, Metabolic Activation: NONE, Method: STANDARD PLATE); “active; positive” (Test System: AMES SALMONELLA TYPHIMURIUM, Strain/Indicator: TA2637, Metabolic Activation: RAT, LIVER, S-9, PCB, Method: STANDARD PLATE).

(Values after PubChem BioAssay AID1259407 (Chemical Carcinogenesis Research Information System (CCRIS), 2018).)
